How the values were obtained:
Cannabinoid receptor 1 = Cannabinoid receptor 1 (Homo sapiens, UniProt P21554); format: cell membranes, Membrane; conditions: chem-1; also: in other assays of this panel Not Active means under 50% inhibition at 10 µM
[1] = DRUGMATRIX: Interleukin IL-1 radioligand binding (ligand: [125I] interleukin 1beta); format: cell membranes, Membrane; conditions: nih3t3; Not Active = under 50% inhibition at 10 µM
Insulin receptor = Insulin receptor (Rattus norvegicus, UniProt P15127); format: cell membranes, Wistar, Liver, Membrane; also: in other assays of this panel Not Active means under 50% inhibition at 10 µM
[2] = target: Mitogen-activated protein kinase 14 (Homo sapiens, UniProt Q16539); parameters: species or system Escherichia coli;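 also: inhibition of p38alpha enzyme activity in a biochemical kinase assay, with myelin basic protein serving as substrate; in other assays of this panel Not Active means under 50% inhibition at 10 µM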
[3] = target: Tyrosine-protein kinase Lck (Homo sapiens, UniProt P06239); experiment: DRUGMATRIX: Protein Tyrosine Kinase, LCK enzyme inhibition (substrate: Poly(Glu:Tyr)); format: cell-based, Insect cells; conditions: insect cells, Not Active = under 50% inhibition at 10 µM
[4] = DRUGMATRIX: Leukotriene, BLT (LTB4) radioligand binding (ligand: [3H]LTB4); format: cell membranes, Membrane; conditions: u-937; Not Active = under 50% inhibition at 10 µM
[5] = target: Delta-type opioid receptor (Homo sapiens, UniProt P41143); format: cell membranes, HEK293, Membrane; conditions: hek293; also: in other assays of this panel Not Active means under 50% inhibition at 10 µM
[6] = DRUGMATRIX: Phorbol Ester radioligand binding (ligand: [3H] PDBu); format: cell membranes, Mus musculus, ICR, Brain, Membrane; conditions: Not Active = under 50% inhibition at 10 µM
[7] = target: T1, 5-hydroxytryptamine receptor 2C (Homo sapiens, UniProt P28335); experiment: DRUGMATRIX: Serotonin (5-Hydroxytryptamine) 5-HT2C radioligand binding (ligand: [3H] Mesulergine); format: cell membranes, CHO-K1, Membrane; conditions: cho-k1; Not Active = under 50% inhibition at 10 µM
T1 sequence (P28335 whole entry): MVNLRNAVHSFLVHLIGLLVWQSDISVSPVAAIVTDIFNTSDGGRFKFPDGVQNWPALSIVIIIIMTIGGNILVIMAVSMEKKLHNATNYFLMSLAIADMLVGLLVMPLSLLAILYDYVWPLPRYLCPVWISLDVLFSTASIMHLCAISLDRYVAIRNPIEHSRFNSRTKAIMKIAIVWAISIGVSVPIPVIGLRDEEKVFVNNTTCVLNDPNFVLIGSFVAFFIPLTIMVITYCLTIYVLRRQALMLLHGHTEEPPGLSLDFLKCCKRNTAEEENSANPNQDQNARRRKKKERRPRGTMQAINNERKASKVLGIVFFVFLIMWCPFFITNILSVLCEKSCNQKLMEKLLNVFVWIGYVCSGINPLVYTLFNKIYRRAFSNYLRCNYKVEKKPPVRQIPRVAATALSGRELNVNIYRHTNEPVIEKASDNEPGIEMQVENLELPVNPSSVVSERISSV

[8] = target: Sigma non-opioid intracellular receptor 1 (Homo sapiens, UniProt Q99720); experiment: DRUGMATRIX: Sigma1 radioligand binding (ligand: [3H] Haloperidol); format: cell membranes, Jurkat, Membrane; conditions: jurkat; Not Active = under 50% inhibition at 10 µM
[9] = target: T2, C-X-C chemokine receptor type 2 (Homo sapiens, UniProt P25025); format: cell membranes, Membrane; conditions: cho-k1; also: in other assays of this panel Not Active means under 50% inhibition at 10 µM
T2 sequence (P25025 whole entry): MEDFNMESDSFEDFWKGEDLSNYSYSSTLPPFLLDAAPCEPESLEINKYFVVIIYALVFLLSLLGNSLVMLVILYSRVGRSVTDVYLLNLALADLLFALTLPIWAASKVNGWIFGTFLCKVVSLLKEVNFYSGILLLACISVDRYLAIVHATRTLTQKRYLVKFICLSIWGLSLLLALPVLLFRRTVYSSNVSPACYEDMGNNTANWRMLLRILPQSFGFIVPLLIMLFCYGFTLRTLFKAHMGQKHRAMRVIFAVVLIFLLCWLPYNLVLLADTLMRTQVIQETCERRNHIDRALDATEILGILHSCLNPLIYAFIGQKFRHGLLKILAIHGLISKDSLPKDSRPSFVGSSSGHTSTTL

[10] = target: Tyrosine-protein kinase Fyn (Homo sapiens, UniProt P06241); experiment: biochemical; format: cell-based, Insect cells; conditions: insect cells
[11] = target: Vascular endothelial growth factor receptor 1 (Homo sapiens, UniProt P17948); format: cell-based; conditions: huvec; also: in other assays of this panel Not Active means under 50% inhibition at 10 µM
[12] = target: T3, C-X-C chemokine receptor type 1 (Homo sapiens, UniProt P25024); also: in other assays of this panel Not Active means under 50% inhibition at 10 µM
T3 sequence (P25024 whole entry): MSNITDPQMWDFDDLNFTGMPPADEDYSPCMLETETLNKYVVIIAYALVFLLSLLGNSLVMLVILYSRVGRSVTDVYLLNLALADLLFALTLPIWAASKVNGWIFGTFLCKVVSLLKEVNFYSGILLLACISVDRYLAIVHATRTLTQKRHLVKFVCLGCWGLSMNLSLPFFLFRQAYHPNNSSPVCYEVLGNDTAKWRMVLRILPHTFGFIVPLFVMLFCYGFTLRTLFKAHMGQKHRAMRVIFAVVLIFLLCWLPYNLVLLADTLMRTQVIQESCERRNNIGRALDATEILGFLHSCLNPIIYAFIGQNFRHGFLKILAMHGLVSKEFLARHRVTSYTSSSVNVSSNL

Neutrophil elastase = target: T4, Neutrophil elastase (Homo sapiens, UniProt P08246); format: tissue-based
T4 sequence (P08246 whole entry): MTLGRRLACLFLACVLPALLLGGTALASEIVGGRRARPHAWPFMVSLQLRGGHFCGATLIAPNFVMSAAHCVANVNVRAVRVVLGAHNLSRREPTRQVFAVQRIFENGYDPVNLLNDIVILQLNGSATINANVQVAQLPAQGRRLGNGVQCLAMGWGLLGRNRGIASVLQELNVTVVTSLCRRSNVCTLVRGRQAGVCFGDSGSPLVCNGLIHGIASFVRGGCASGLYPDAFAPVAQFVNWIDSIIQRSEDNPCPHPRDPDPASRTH

[13] = target: Beta-1 adrenergic receptor (Homo sapiens, UniProt P08588); experiment: DRUGMATRIX: Adrenergic beta1 radioligand binding (ligand: [125I] Cyanopindolol); format: cell membranes, CHO-K1, Membrane; conditions: cho-k1; Not Active = under 50% inhibition at 10 µM
[14] = DRUGMATRIX: Glutamate, NMDA, Phencyclidine radioligand binding (ligand: [3H] TCP); format: cell membranes, Rattus norvegicus, Wistar, Cerebral cortex, Membrane; conditions: Not Active = under 50% inhibition at 10 µM
[15] = DRUGMATRIX: Imidazoline I2, Central radioligand binding (ligand: [3H] Idazoxan); format: cell membranes, Rattus norvegicus, Wistar, Cerebral cortex, Membrane; conditions: Not Active = under 50% inhibition at 10 µM

Chain of Beta-1 adrenergic receptor (P08588 whole entry): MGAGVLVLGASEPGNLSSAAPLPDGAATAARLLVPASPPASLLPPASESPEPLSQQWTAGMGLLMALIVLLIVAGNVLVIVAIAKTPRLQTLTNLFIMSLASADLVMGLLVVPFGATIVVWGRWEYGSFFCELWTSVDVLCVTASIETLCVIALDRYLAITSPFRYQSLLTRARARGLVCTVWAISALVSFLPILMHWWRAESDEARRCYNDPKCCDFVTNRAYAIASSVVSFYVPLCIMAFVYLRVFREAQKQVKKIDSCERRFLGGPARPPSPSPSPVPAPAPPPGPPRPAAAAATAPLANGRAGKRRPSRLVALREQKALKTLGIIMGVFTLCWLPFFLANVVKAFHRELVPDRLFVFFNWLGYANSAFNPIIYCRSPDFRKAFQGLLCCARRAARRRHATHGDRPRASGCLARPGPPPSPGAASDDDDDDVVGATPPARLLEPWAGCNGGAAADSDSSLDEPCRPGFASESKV
Chain of Insulin receptor (P15127 27-759 limits assumed): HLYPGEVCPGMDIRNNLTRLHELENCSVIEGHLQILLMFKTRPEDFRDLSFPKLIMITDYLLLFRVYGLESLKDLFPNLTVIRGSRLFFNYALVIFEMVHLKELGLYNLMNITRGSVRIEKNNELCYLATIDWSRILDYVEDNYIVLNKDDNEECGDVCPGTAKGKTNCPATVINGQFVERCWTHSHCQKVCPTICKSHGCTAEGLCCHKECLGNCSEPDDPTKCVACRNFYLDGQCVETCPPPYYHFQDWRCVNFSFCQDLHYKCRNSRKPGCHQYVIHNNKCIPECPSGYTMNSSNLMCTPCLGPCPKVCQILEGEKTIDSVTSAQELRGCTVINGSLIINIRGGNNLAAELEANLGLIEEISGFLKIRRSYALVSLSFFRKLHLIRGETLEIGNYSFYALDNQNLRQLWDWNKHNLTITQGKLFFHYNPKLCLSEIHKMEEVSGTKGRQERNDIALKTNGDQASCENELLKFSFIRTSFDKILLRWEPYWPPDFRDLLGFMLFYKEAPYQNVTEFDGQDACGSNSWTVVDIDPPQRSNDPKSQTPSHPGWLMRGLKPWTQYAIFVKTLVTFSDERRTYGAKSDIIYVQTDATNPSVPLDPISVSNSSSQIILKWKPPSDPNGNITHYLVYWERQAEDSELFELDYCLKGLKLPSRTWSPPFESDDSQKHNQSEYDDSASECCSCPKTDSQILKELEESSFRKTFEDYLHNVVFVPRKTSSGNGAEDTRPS
Chain of Insulin receptor (P15127 764-1383 limits assumed): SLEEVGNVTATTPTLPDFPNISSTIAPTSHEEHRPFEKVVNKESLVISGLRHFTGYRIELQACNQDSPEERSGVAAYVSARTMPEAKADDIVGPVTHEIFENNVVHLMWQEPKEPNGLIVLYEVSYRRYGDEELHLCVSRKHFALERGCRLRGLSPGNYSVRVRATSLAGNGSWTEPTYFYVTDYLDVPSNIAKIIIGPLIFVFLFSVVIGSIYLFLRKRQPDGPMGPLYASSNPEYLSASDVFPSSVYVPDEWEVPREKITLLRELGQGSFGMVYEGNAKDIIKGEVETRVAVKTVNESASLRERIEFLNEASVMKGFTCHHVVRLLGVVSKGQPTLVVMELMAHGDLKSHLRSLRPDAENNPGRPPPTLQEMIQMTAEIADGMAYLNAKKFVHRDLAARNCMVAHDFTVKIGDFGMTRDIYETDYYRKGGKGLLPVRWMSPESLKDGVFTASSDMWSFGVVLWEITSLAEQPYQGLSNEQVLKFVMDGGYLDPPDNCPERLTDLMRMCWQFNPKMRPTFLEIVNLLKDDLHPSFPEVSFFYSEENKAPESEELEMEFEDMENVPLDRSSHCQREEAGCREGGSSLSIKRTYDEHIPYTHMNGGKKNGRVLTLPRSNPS
Chain of Delta-type opioid receptor (P41143 whole entry): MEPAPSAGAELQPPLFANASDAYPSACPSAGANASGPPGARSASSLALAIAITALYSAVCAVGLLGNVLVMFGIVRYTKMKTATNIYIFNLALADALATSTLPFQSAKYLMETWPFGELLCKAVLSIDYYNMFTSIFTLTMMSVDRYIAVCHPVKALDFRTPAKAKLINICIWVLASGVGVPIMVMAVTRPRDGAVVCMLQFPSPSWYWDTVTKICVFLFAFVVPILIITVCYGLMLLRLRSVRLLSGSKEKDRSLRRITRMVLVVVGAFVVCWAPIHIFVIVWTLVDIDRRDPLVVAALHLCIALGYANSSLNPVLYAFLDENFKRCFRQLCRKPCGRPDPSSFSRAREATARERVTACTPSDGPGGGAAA
Chain of Vascular endothelial growth factor receptor 1 (P17948 whole entry): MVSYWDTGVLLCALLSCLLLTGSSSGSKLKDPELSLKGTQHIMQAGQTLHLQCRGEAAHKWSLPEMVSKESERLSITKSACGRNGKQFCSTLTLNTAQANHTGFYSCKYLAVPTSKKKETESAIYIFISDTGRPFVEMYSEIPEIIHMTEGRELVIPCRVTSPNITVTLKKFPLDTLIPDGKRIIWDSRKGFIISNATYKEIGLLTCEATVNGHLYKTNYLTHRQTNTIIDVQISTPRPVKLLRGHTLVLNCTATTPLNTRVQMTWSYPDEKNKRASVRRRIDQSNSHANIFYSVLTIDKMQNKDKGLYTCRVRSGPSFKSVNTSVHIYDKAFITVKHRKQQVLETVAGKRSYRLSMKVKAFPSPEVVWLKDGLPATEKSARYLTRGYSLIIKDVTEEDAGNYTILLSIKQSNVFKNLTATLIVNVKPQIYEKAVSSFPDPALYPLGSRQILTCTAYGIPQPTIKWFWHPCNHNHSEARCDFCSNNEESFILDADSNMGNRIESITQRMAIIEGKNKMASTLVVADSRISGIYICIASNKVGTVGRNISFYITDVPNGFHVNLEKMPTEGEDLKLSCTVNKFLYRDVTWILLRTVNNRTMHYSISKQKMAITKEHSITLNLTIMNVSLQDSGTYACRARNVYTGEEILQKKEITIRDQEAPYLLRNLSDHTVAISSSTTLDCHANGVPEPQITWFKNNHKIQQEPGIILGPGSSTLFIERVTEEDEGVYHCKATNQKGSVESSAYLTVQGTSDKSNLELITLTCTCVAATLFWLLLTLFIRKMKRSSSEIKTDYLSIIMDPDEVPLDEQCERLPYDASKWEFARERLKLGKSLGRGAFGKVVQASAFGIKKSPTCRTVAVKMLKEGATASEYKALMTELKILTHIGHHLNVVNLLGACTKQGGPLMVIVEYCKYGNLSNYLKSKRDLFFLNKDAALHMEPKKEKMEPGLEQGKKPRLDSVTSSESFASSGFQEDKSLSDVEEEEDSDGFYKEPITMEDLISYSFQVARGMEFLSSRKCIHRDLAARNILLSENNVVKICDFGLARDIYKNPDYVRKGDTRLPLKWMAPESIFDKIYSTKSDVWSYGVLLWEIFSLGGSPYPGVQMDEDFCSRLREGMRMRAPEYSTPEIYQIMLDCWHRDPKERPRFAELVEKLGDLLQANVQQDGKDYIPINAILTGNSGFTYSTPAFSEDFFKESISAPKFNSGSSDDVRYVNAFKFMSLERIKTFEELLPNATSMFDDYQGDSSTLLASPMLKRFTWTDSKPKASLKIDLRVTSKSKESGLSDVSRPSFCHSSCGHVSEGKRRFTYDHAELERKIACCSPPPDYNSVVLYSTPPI
Chain of Cannabinoid receptor 1 (P21554 whole entry): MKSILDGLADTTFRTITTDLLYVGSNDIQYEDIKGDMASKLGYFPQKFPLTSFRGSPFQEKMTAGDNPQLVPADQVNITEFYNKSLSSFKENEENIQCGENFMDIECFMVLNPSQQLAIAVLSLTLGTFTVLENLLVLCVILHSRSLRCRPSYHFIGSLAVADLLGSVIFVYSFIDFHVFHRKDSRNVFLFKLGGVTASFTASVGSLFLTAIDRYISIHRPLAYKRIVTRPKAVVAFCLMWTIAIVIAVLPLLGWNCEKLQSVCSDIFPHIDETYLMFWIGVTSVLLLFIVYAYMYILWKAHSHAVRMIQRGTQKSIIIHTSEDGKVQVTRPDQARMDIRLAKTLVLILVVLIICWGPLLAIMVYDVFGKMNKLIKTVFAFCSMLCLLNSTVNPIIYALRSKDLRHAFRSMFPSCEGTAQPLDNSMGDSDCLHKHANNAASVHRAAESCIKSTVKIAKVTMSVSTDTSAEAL
Chain of Tyrosine-protein kinase Fyn (P06241 whole entry): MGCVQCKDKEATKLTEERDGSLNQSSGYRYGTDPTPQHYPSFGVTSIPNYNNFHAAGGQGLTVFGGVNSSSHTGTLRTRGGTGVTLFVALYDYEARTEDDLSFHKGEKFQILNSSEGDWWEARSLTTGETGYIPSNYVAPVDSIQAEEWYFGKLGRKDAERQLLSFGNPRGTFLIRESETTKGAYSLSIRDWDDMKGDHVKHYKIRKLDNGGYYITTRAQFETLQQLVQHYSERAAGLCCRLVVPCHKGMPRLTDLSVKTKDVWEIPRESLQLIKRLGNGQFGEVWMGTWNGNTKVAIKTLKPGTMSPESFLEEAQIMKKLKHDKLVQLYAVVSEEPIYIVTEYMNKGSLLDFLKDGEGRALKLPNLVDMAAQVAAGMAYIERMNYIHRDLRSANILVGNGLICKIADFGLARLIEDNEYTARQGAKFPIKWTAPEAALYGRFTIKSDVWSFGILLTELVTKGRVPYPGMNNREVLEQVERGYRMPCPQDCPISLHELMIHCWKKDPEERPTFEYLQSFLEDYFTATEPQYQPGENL
Chain of Mitogen-activated protein kinase 14 (Q16539 whole entry): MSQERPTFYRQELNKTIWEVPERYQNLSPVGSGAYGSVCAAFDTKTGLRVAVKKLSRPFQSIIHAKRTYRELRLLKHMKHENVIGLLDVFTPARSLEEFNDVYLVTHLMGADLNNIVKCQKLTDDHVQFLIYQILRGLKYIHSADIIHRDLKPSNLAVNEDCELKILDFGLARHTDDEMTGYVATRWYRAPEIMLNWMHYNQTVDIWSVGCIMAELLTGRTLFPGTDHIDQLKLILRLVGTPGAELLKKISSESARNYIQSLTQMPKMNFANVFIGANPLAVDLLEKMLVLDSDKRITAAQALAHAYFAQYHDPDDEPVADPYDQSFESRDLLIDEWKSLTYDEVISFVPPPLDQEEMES

Compound: Cn1cnc([N+](=O)[O-])c1Sc1ncnc2nc[nH]c12 [AZATHIOPRINE]
- IC50 (Cannabinoid receptor 1): Not Active
- IC50 [1]: Not Active
- Ki [1]: Not Active
- IC50 (Insulin receptor): Not Active
- IC50 [2]: Not Active
- IC50 [3]: Not Active
- IC50 [4]: Not Active
- Ki [4]: Not Active
- IC50 [5]: Not Active
- IC50 [6]: Not Active
- Ki [6]: Not Active
- IC50 [7]: Not Active
- IC50 [8]: Not Active
- IC50 [9]: Not Active
- IC50 [10]: Not Active
- IC50 [11]: Not Active
- IC50 [12]: Not Active
- IC50 (Neutrophil elastase): Not Active
- IC50 [13]: Not Active
- IC50 [14]: Not Active
- Ki [14]: Not Active
- IC50 [15]: Not Active
- Ki [15]: Not Active

Compound: COC1=CC(=O)C[C@@H](C)[C@]12Oc1c(Cl)c(OC)cc(OC)c1C2=O [GRISEOFULVIN]
- IC50 (Cannabinoid receptor 1): Not Active
- IC50 [1]: Not Active
- Ki [1]: Not Active
- IC50 (Insulin receptor): Not Active
- IC50 [2]: Not Active
- IC50 [3]: Not Active
- IC50 [4]: Not Active
- Ki [4]: Not Active
- IC50 [5]: Not Active
- IC50 [6]: Not Active
- Ki [6]: Not Active
- IC50 [7]: Not Active
- IC50 [8]: Not Active
- IC50 [9]: Not Active
- IC50 [10]: Not Active
- IC50 [11]: Not Active
- IC50 [12]: Not Active
- IC50 (Neutrophil elastase): Not Active
- IC50 [13]: Not Active
- IC50 [14]: Not Active
- Ki [14]: Not Active
- IC50 [15]: Not Active
- Ki [15]: Not Active

Compound: O=C1CN=C(c2ccccc2)c2cc([N+](=O)[O-])ccc2N1 [NITRAZEPAM]
- IC50 (Cannabinoid receptor 1): Not Active
- IC50 [1]: Not Active
- Ki [1]: Not Active
- IC50 (Insulin receptor): Not Active
- IC50 [2]: Not Active
- IC50 [3]: Not Active
- IC50 [4]: Not Active
- Ki [4]: Not Active
- IC50 [5]: Not Active
- IC50 [6]: Not Active
- Ki [6]: Not Active
- IC50 [7]: Not Active
- IC50 [8]: Not Active
- IC50 [9]: Not Active
- IC50 [10]: Not Active
- IC50 [11]: Not Active
- IC50 [12]: Not Active
- IC50 (Neutrophil elastase): Not Active
- IC50 [13]: Not Active
- IC50 [14]: Not Active
- Ki [14]: Not Active
- IC50 [15]: Not Active
- Ki [15]: Not Active

Compound: CISPLATIN
- IC50 (Cannabinoid receptor 1): Not Active
- Ki (Cannabinoid receptor 1): Not Active
- IC50 [1]: Not Active
- Ki [1]: Not Active
- IC50 (Insulin receptor): Not Active
- Ki (Insulin receptor): Not Active
- IC50 [2]: Not Active
- Ki [2]: Not Active
- IC50 ([3]; read-out: IC50): 22.9 µM
- IC50 [4]: Not Active
- Ki [4]: Not Active
- IC50 [5]: Not Active
- Ki [5]: Not Active
- IC50 [6]: Not Active
- Ki [6]: Not Active
- IC50 [7]: Not Active
- Ki [7]: Not Active
- IC50 [8]: Not Active
- Ki [8]: Not Active
- IC50 ([9]; read-out: IC50): 13.5 µM
- Ki ([9]; read-out: Ki): 9.46 µM
- IC50 ([10]; read-out: IC50): 4.77 µM
- IC50 [11]: Not Active
- Ki [11]: Not Active
- IC50 [12]: Not Active
- Ki [12]: Not Active
- IC50 (Neutrophil elastase): Not Active
- Ki (Neutrophil elastase): Not Active
- IC50 [13]: Not Active
- Ki [13]: Not Active
- IC50 [14]: Not Active
- Ki [14]: Not Active
- IC50 [15]: Not Active
- Ki [15]: Not Active
